Test results from patent US7420056B2, “Substituted bicyclic imidazo-3-ylamine compounds” (Gruenenthal GmbH, priority 2004, dated 2008).
Where a name gives a salt, the structure may show the parent alone.

Target: mGluR5 receptor (Sus scrofa, UniProt I3LUI7)
Experiment: Affinity for the mGluR5 receptor: inhibition of 3[H]-MPEP binding in pig brain homogenate
Details: 3[H]-MPEP binding
How it was run: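 Pig brain membranes (450 μg protein; hemispheres without medulla, cerebellum and pons) in 30 mM Hepes pH 8.0 were incubated 60 min at room temperature with 5 nM [3H]-MPEP and compound at 10 μM. Bound radioactivity was filtered and counted. Nonspecific binding was defined with 10 μM MPEP.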

Sequence of mGluR5 receptor (I3LUI7 19-1212): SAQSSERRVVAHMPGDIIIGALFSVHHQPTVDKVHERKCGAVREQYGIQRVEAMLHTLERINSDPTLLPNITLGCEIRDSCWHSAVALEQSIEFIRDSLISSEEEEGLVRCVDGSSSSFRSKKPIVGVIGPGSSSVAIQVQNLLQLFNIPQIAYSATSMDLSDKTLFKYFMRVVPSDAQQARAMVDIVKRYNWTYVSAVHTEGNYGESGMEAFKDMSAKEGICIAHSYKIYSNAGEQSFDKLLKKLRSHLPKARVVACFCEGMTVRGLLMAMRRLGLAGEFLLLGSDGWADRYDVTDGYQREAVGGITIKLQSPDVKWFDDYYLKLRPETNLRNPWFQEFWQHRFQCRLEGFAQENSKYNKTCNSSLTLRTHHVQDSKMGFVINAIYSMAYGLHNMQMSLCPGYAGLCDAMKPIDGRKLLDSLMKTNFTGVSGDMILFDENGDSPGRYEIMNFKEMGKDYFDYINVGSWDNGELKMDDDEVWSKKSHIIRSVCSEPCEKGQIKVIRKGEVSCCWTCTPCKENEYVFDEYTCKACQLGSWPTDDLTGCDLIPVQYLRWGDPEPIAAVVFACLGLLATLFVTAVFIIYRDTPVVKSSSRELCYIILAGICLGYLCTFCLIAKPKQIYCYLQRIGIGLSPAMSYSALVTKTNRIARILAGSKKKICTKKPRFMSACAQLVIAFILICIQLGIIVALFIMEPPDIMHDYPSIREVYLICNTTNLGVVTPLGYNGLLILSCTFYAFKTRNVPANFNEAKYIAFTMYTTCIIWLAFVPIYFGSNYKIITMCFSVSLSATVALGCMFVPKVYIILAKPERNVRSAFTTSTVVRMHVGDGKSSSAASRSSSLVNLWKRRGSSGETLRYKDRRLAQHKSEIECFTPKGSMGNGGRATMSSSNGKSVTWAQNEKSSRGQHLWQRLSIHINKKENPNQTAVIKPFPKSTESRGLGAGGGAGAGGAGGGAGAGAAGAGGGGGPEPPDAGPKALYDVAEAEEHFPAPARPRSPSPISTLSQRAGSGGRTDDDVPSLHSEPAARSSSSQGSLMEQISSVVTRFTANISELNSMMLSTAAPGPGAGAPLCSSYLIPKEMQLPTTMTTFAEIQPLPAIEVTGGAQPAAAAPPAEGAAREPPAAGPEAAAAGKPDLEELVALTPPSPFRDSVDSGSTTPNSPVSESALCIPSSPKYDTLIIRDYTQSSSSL

Structure (SMILES)	IC50 [nM]
CC(C)(C)Nc1c(-c2ccc(C#Cc3ncccn3)s2)nc2cnccn12 [Example 129, N-tert-butyl-2-(5-(pyrimidin-2-ylethynyl)thiophen-2-yl)imidazo[1,2-a]pyrazin-3-amine hydrochloride]	12
Cc1ccnc(C#Cc2ccc(-c3nc4cnccn4c3NC(C)(C)C)s2)c1 [Example 130, N-tert-butyl-2-(5-((4-methylpyridin-2-yl)ethynyl)thiophen-2-yl)imidazo[1,2-a]pyrazin-3-amine hydrochloride]	37
Cc1ccc(C#Cc2ccc(-c3nc4cnccn4c3NC(C)(C)C)s2)nc1 [Example 131, N-tert-butyl-2-(5-((5-methylpyridin-2-yl)ethynyl)thiophen-2-yl)imidazo[1,2-a]pyrazin-3-amine hydrochloride]	140
CC(C)(C)Nc1c(-c2ccc(C#Cc3ccncc3)s2)nc2ccccn12 [Example 132, N-tert-butyl-2-(5-(pyridin-4-ylethynyl)thiophen-2-yl)imidazo[1,2-a]pyridin-3-amine hydrochloride]	16
CC(C)(C)Nc1c(-c2ccc(C#Cc3nccs3)s2)nc2cnccn12 [Example 133, N-tert-butyl-2-(5-(thiazol-2-ylethynyl)thiophen-2-yl)imidazo[1,2-a]pyrazin-3-amine]	15
Nc1c(-c2ccc(C#Cc3ccccn3)s2)nc2cnccn12 [Example 134, 2-(5-(pyridin-2-ylethynyl)thiophen-2-yl)imidazo[1,2-a]pyrazin-3-amine hydrochloride]	570
Cc1ccc(C#Cc2ccc(-c3nc4cnccn4c3NC(C)(C)C)s2)s1 [Example 135, N-tert-butyl-2-(5-((5-methylthiophen-2-yl)ethynyl)thiophen-2-yl)imidazo[1,2-a]pyrazin-3-amine hydrochloride]	1200
CC(C)(C)Nc1c(-c2ccc(C#Cc3cccc(N)n3)s2)nc2cnccn12 [Example 136, 2-(5-((6-aminopyridin-2-yl)ethynyl)thiophen-2-yl)-N-tert-butylimidazo[1,2-a]pyrazin-3-amine hydrochloride]	13800

Results, then the compound that gave them:

IC50 [nM]	Structure (SMILES)
860	Cc1ccsc1C#Cc1ccc(-c2nc3cnccn3c2NC(C)(C)C)s1 [Example 137, N-tert-butyl-2-(5-((3-methylthiophen-2-yl)ethynyl)thiophen-2-yl)imidazo[1,2-a]pyrazin-3-amine]
15100	CC(C)(C)Nc1c(-c2nc(C#Cc3ccccc3)cs2)nc2cnccn12 [Example 138, N-tert-butyl-2-(4-(phenylethynyl)thiazol-2-yl)imidazo[1,2-a]pyrazin-3-amine]
71	Cc1cccc(C#Cc2ccc(-c3nc4cnccn4c3NC(C)(C)C)s2)c1 [Example 139, N-tert-butyl-2-(5-(m-tolylethynyl)thiophen-2-yl)imidazo[1,2-a]pyrazin-3-amine]
26	CC(C)(C)Nc1c(-c2ccc(C#Cc3cccc(C#N)c3)s2)nc2cnccn12 [Example 140, 3-((5-(3-(tert-butylamino)imidazo[1,2-a]pyrazin-2-yl)thiophen-2-yl)ethynyl)benzonitrile hydrochloride]
2.8	CC(C)(C)Nc1c(-c2ccc(C#Cc3ccccn3)s2)nc2ncccn12 [Example 141, N-tert-butyl-2-(5-(pyridin-2-ylethynyl)thiophen-2-yl)imidazo[1,2-a]pyrimidin-3-amine]
3.2	CN(c1c(-c2ccc(C#Cc3ccccn3)s2)nc2cnccn12)C(C)(C)C [Example 143, N-tert-butyl-N-methyl-2-(5-(pyridin-2-ylethynyl)thiophen-2-yl)imidazo[1,2-a]pyrazin-3-amine]
3680	CC(C)(C)Nc1c(-c2ccc(C#Cc3ccc(C#N)cc3)s2)nc2cnccn12 [Example 144, 4-((5-(3-(tert-butylamino)imidazo[1,2-a]pyrazin-2-yl)thiophen-2-yl)ethynyl)benzonitrile hydrochloride]
35	CC(C)(C)Nc1c(-c2cnc(C#Cc3ccccc3)s2)nc2cnccn12 [Example 146, N-tert-butyl-2-(2-(phenylethynyl)thiazol-5-yl)imidazo[1,2-a]pyrazin-3-amine]
